Structures can show the parent of a compound that is named as a salt.

The experiment deals with T1, IRAK4 (Homo sapiens, UniProt Q9NWZ3).
T1 sequence (Q9NWZ3 1-460): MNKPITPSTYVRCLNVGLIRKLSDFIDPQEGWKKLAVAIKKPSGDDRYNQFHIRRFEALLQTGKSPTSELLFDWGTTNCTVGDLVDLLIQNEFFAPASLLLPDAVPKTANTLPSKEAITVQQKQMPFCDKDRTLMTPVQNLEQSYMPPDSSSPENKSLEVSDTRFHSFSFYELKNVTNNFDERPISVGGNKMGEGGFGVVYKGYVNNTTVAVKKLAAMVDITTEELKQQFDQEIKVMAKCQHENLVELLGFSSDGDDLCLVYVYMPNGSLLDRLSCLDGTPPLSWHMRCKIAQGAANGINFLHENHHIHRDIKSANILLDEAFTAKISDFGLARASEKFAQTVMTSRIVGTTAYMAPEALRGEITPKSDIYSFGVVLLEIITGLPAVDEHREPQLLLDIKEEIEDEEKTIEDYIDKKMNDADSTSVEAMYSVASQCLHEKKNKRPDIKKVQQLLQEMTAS
The experiment in a line: 2-hour 1 mM ATP IRAK4 Biochemical assay (as above, but with 100 pM IRAK4 and 1 mM ATP). The conditions noted are these: IRAK4 MSD BIOCHEMICAL (1 mM ATP) IC50 (μM), 100 pM IRAK4, 2 hours. Summed up:
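Run with 100 pM IRAK4 and 1 mM ATP for 2 hours, quenched with EDTA pH 8. Phosphorylated biotinylated peptide captured on streptavidin MSD plates and detected with anti-phosphothreonine antibody plus Sulfo-Tag secondary by electrochemiluminescence.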
As a reminder, the IC50 is the concentration that inhibits the measured activity by half. `CC(C)Oc1cc2nc(C3CCOCC3)c(Cl)n2cc1NC(=O)c1cccc(C(F)F)n1` [Example 353, N-(3-chloro-7-isopropoxy-2-(tetrahydro-2H-pyran-4-yl)imidazo[1,2-a]pyridin-6-yl)-6-(difluoromethyl)picolinamide] displayed a 50% inhibitory concentration (IC50) of 0.011 µM.
In turn, `CCOc1cc2nc(C(C)(C)O)c(Cl)n2cc1NC(=O)c1cccc(C(F)F)n1` [Example 354, N-(3-chloro-7-ethoxy-2-(2-hydroxypropan-2-yl)imidazo[1,2-a]pyridin-6-yl)-6-(difluoromethyl)picolinamide] showed an IC50 of 0.438 µM.
With `CC12CC(c3cn4cc(NC(=O)c5cccc(C(F)F)n5)ccc4n3)(CO1)C2` [Example 357, 6-(difluoromethyl)-N-(2-(1-methyl-2-oxabicyclo[2.1.1]hexan-4-yl)imidazo[1,2-a]pyridin-6-yl)picolinamide], the IC50 worked out at 0.03 µM.
Take `CCOc1cc2nc(C3CCOCC3)cn2cc1NC(=O)c1cccc(C2CCOC2)n1` (stereo not shown) [Example 367, N-(7-ethoxy-2-(tetrahydro-2H-pyran-4-yl)imidazo[1,2-a]pyridin-6-yl)-6-(tetrahydrofuran-3-yl)picolinamide]: the midpoint of inhibition, the IC50, lay at 0.011 µM.
As for `COCc1cc2nc(C3CCOCC3)cn2cc1NC(=O)c1cccc(C)n1` [Example 371, N-(7-(methoxymethyl)-2-(tetrahydro-2H-pyran-4-yl)imidazo[1,2-a]pyridin-6-yl)-6-methylpicolinamide 2,2,2-trifluoroacetate], the figure is 0.035 µM; as for `CCOc1cc2nc(C3C4COCC43)cn2cc1NC(=O)c1ccn(C2CC2(F)F)n1` (stereo not shown) [Example 374, N-(2-(3-oxabicyclo[3.1.0]hexan-6-yl)-7-ethoxyimidazo[1,2-a]pyridin-6-yl)-1-(2,2-difluorocyclopropyl)-1H-pyrazole-3-carboxamide], 0.002 µM.
`CCOc1cc2nc(C3C4COCC43)cn2cc1NC(=O)c1coc(C2CC2)n1` (stereo not shown) [Example 375, N-(2-(3-oxabicyclo[3.1.0]hexan-6-yl)-7-ethoxyimidazo[1,2-a]pyridin-6-yl)-2-cyclopropyloxazole-4-carboxamide] came in with an IC50 of 0.004 µM.
`CCOc1cc2nc(C3C4COCC43)cn2cc1NC(=O)c1coc(C(F)F)n1` (stereo not shown) [Example 376, N-(2-(3-oxabicyclo[3.1.0]hexan-6-yl)-7-ethoxyimidazo[1,2-a]pyridin-6-yl)-2-(difluoromethyl)oxazole-4-carboxamide 2,2,2-trifluoroacetate]: the IC50 is 0.009 µM.
In the case of `CCOc1cc2nc(C3C4COCC43)cn2cc1NC(=O)c1csc(C(F)(F)F)n1` (stereo not shown) [Example 377, N-(2-(3-oxabicyclo[3.1.0]hexan-6-yl)-7-ethoxyimidazo[1,2-a]pyridin-6-yl)-2-(trifluoromethyl)thiazole-4-carboxamide 2,2,2-trifluoroacetate], 0.001 µM corresponded to half-maximal inhibition (IC50).
For `CC(C)Oc1cc2nc(C3CCOCC3)cn2cc1NC(=O)c1cccc2c1OCC2` [Example 379, N-(7-isopropoxy-2-(tetrahydro-2H-pyran-4-yl)imidazo[1,2-a]pyridin-6-yl)-2,3-dihydrobenzofuran-7-carboxamide], the IC50 is 0.002 µM.
The compound `CC(C)Oc1cc2nc(C3CCOCC3)cn2cc1NC(=O)c1cccc(C2CCOC2)n1` (stereo not shown) [Example 380, N-(7-isopropoxy-2-(tetrahydro-2H-pyran-4-yl)imidazo[1,2-a]pyridin-6-yl)-6-(tetrahydrofuran-3-yl)picolinamide hydrochloride] had an IC50 of 0.002 µM.
With `CC(C)Oc1cc2nc(C3CCOCC3)cn2cc1NC(=O)c1cc2ccccn2n1` [Example 381, N-(7-isopropoxy-2-(tetrahydro-2H-pyran-4-yl)imidazo[1,2-a]pyridin-6-yl)pyrazolo[1,5-a]pyridine-2-carboxamide 2,2,2-trifluoroacetate], it took 0.004 µM to reach half-maximal inhibition (IC50).
As for `CC(C)Oc1cc2nc(C3CCOCC3)cn2cc1NC(=O)c1cc2ncccn2n1` [Example 382, N-(7-isopropoxy-2-(tetrahydro-2H-pyran-4-yl)imidazo[1,2-a]pyridin-6-yl)pyrazolo[1,5-a]pyrimidine-2-carboxamide 2,2,2-trifluoroacetate], the figure is 0.022 µM.

These data come from patent US20220089592A1, “IMIDAZO[1,2-A]PYRIDINYL DERIVATIVES AS IRAK4 INHIBITORS” (priority 2019, published 2022).
